Patent US6875760B2 (Novo Nordisk A/S, priority 1999, dated 2005)
Where two headings read alike, the source gives them in different places.

Target: T1, human glucagon receptor (Homo sapiens, UniProt P47871)
T1 construct: expressed in transfected cells; host or cells: BHK (baby hamster kidney) cells
Experiment: Glucagon Binding Assay (III)
Settings: BHK cell membranes, WGA SPA beads, 125I-glucagon
Procedure: BHK (baby hamster kidney cell line) cells were transfected with the human glucagon receptor and a membrane preparation of the cells was prepared.
All steps in the membrane preparation were kept on ice or performed at 4° C. BHK cells were harvested and centrifuged. […] The pellet was resuspended in homogenisation buffer, homogenised 2×10 sec (Polytron) and additional homogenisation buffer was added. […] (Polytron).
The glucagon binding assay was carried out in opti plates (Polystyrene Microplates, Packard). […] Finally 50 μL WGA beads containing 1 mg beads were transferred to the well. The assay was incubated for 4 hours on a shaker and then settled for 8-48 hours. The opti plates were counted in a Topcounter. Non-specific binding was determined with 500 nM of glucagon.

[1] = read-out: Glu Bd Assay (III) IC50

T1 sequence (P47871 26-477): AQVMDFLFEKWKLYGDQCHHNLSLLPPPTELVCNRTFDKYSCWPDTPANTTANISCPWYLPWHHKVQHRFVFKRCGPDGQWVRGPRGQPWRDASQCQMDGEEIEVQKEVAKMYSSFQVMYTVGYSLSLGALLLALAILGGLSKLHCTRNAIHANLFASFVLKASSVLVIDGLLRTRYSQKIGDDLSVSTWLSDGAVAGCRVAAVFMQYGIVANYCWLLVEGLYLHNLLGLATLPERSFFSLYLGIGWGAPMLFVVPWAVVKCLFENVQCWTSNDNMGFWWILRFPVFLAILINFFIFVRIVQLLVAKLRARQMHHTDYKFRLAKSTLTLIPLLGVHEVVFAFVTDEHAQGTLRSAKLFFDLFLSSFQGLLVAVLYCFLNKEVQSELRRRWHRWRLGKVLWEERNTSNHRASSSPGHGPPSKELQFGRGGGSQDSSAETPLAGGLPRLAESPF

CCC[C@H]1CC[C@@H](N(Cc2ccc(C(=O)NCCC(=O)O)cc2)C(=O)Nc2ccc(OC(F)(F)F)cc2)CC1 [Example 77, 3-{4-[1-(4-cis-Propylcyclohexyl)-3-(4-trifluoromethoxyphenyl)ureidomethyl]benzoylamino}propionic acid] was tested, and the IC50 [1] was 294 nM.

CCC(C)(C)[C@H]1CC[C@H](N(Cc2ccc(C(=O)NCCC(=O)O)cc2)C(=O)Nc2ccc(OC(F)(F)F)cc2)CC1 [Example 78, 3-{4-[1-[4-trans-(1,1-Dimethylpropyl)cyclohexyl]-3-(4-trifluoromethoxyphenyl)ureidomethyl]benzoylamino}propionic acid] was tested, and the IC50 [1] was 49 nM.

Compound O=C(O)CCNC(=O)c1ccc(CN(C(=O)Nc2ccc(OC(F)(F)F)cc2)C2CCC3CCCCC3C2)cc1 (centres unmarked) [Example 79, 3-{4-[1-(Decahydronaphthalen-2-yl)-3-(4-trifluoromethoxyphenyl)ureidomethyl]benzoylamino}propionic acid] has an IC50 [1] of 200 nM.

O=C(O)CCNC(=O)c1ccc(CN(C(=O)Nc2ccc(OC(F)(F)F)cc2)[C@H]2CC[C@@H](c3ccccc3)CC2)cc1 [Example 80, 3-{4-[1-(4-cis-Phenylcyclohexyl)-3-(4-trifluoromethoxyphenyl)ureidomethyl]benzoylamino}propionic acid] showed an IC50 [1] of 229 nM.

In the case of O=C(O)CCNC(=O)c1ccc(CN(C(=O)Nc2ccc(OC(F)(F)F)cc2)[C@H]2CC[C@H](c3ccccc3)CC2)cc1 [Example 81, 3-{4-[1-(4-trans-Phenylcyclohexane)-3-(4-trifluoromethoxyphenyl)ureidomethyl]benzoylamino}propionic acid], the IC50 [1] is reported as 143 nM.

CC(C)C1CCC(N(Cc2ccc(C(=O)NCCC(=O)O)cc2)C(=O)Nc2ccc(OC(F)(F)F)cc2)CC1 (centres unmarked) [Example 82, 3-{4-[1-(4-Isopropylcyclohexyl)-3-(4-trifluoromethoxyphenyl)ureidomethyl]benzoylamino}propionic acid] was tested, and the IC50 [1] was 59 nM.

CCC1CCC(N(Cc2ccc(C(=O)NCCC(=O)O)cc2)C(=O)Nc2ccc(OC(F)(F)F)cc2)CC1 (centres unmarked) [Example 83, 3-{4-[1-(4-Ethylcyclohexyl)-3-(4-trifluoromethoxyphenyl)ureidomethyl]benzoylamino}propionic acid] showed an IC50 [1] of 203 nM.

In the case of CCCCOC(=O)c1ccc(NC(=O)N(Cc2ccc(C(=O)NCCC(=O)O)cc2)C2CCC(C(C)C)CC2)cc1 (centres unmarked) [Example 84, 4-[3-[4-(2-Carboxyethylcarbamoyl)benzyl]-3-(4-isopropylcyclohexyl)ureido]benzoic acid butyl ester], the IC50 [1] is reported as 261 nM.

Compound CCC1CCC(N(Cc2ccc(C(=O)NCCC(=O)O)cc2)C(=O)Nc2cc(C(F)(F)F)cc(C(F)(F)F)c2)C1 (centres unmarked) [Example 85, 3-{4-[3-(3,5-Bis(trifluoromethyl)phenyl)-1-(3-ethylcyclopentyl)ureidomethyl]benzoylamino}propionic acid] has an IC50 [1] of 494 nM.

O=C(O)CCNC(=O)c1ccc(CN(C(=O)Nc2cc(C(F)(F)F)cc(C(F)(F)F)c2)C2CCc3ccccc3C2)cc1 (centres unmarked) [Example 86, 3-{4-[3-(3,5-Bis(trifluoromethyl)phenyl)-1-(1,2,3,4-tetrahydronaphthalen-2-yl)ureidomethyl]benzoylamino}propionic acid] was tested, and the IC50 [1] was 423 nM.

With CCC(C)(C)C1CCC(N(Cc2ccc(C(=O)NCCC(=O)O)cc2)C(=O)Nc2ccc(OC(F)(F)F)cc2)CC1 (centres unmarked) [Example 87, 3-{4-[1-[4-(1,1-Dimethylpropyl)cyclohexyl]-3-(4-trifluoromethoxyphenyl)ureidomethyl]benzoylamino}propionic acid] the IC50 [1] was 43 nM.

CCCC1(CCC)CCC(N(Cc2ccc(C(=O)NCCC(=O)O)cc2)C(=O)Nc2ccc(OC(F)(F)F)cc2)CC1 [Example 88, 3-{4-[1-(4,4-Dipropylcyclohexyl)-3-(4-trifluoromethoxyphenyl)ureidomethyl]benzoylamino}propionic acid] was tested, and the IC50 [1] was 137 nM.

O=C(O)CCNC(=O)c1ccc(CN(C(=O)Nc2ccc(OC(F)(F)F)cc2)C2CCC3(CC2)OCCO3)cc1 [Example 89, 3-{4-[1-(1,4-Dioxaspiro[4.5]dec-8-yl)-3-(4-trifluoromethoxyphenyl)ureidomethyl]benzoylamino}propionic acid] was tested, and the IC50 [1] was 1210 nM.

CC(C)(C)C1CCC(N(Cc2ccc(C(=O)N(CCC(=O)O)CC3CC3)cc2)C(=O)Nc2ccc(OC(F)(F)F)cc2)CC1 (centres unmarked) [Example 90, 3-({4-[1-(4-tert-Butylcyclohexyl)-3-(4-trifluoromethoxyphenyl)ureidomethyl]benzoyl}cyclopropylmethyl)aminopropionic acid] showed an IC50 [1] of 4200 nM.

CCN(CCC(=O)O)C(=O)c1ccc(CN(C(=O)Nc2ccc(OC(F)(F)F)cc2)C2CCC(C(C)(C)C)CC2)cc1 (centres unmarked) [Example 91, 3-({4-[1-(4-tert-Butylcyclohexyl)-3-(4-trifluoromethoxyphenyl)ureidomethyl]benzoyl}ethylamino)propionic acid] showed an IC50 [1] of 2800 nM.

With CC(C)(C)[C@H]1CC[C@@H](N(Cc2ccc(C(=O)NCCC(=O)O)cc2)C(=O)Nc2ccc(OC(F)(F)F)cc2)CC1 [Example 93, 3-{4-[1-(cis-4-tert-Butylcyclohexyl)-3-(4-trifluoromethoxy-phenyl)ureidomethyl]benzoylamino}propionic acid] the IC50 (Glu Bd Assay (III) IC50 (nM)) was 47 nM.

Work on CC(C)(C)[C@H]1CC[C@H](N(Cc2ccc(C(=O)NCC(=O)O)cc2)C(=O)Nc2ccc(OC(F)(F)F)cc2)CC1 [Example 95, 3-{4-[1-(trans-4-tert-Butylcyclohexyl)-3-(4-trifluoromethoxyphenyl)ureidomethyl]benzoylamino}acetic acid] yielded an IC50 (Glu Bd Assay (III) IC50 (nM)) of 1700 nM.

CCCCC(CC)CN(Cc1ccc(C(=O)NCCC(=O)O)cc1)C(=O)Nc1ccc(OC(F)(F)F)cc1 (centres unmarked) [Example 96, 3-{4-[1-(2-Ethylhexyl)-3-(4-trifluoromethoxyphenyl)ureidomethyl]benzoylamino}propionic acid] gave an IC50 [1] of 137 nM.

With O=C(O)CCNC(=O)c1ccc(CN(C(=O)Nc2ccc(OC(F)(F)F)cc2)[C@H]2CC[C@H](OC(=O)Nc3ccc(OC(F)(F)F)cc3)CC2)cc1 [Example 97, 3-{4-[1-(trans-4-(4-Trifluoromethoxyphenylcarbamoyloxy)cyclohexyl)-3-(4-trifluoromethoxyphenyl)ureidomethyl]benzoylamino}propionic acid] the IC50 [1] was 1650 nM.

Compound COC(=O)CCNC(=O)c1ccc(CN(C(=O)Nc2ccc(OC(F)(F)F)cc2)[C@H]2CC[C@H](C(C)(C)C)CC2)cc1 [Example 98, 3-{4-[1-(trans-4-tert-Butylcyclohexyl)-3-(4-trifluoromethoxyphenyl)ureidomethyl]benzoylamino}propionic acid methyl ester] has an IC50 [1] of 83 nM.

CC(C)(C)C1CCC(N(Cc2ccc(C(=O)NCCC(=O)O)cc2)C(=O)Nc2ccc(C#N)cc2)CC1 (centres unmarked) [Example 99, 3-{4-[1-(4-tert-Butylcyclohexyl)-3-(4-cyanophenyl)ureidomethyl]benzoylamino}propionic acid] gave an IC50 (Glu Bd Assay (III) IC50 (nM)) of 1050 nM.

CC(C)(C)[C@H]1CC[C@H](N(Cc2ccc(C(=O)NCCC(=O)O)cc2)C(=O)Nc2cc(C(F)(F)F)cc(C(F)(F)F)c2)CC1 [Example 100, 3-{4-[3-(3,5-Bis-trifluoromethylphenyl)-1-(trans-4-tert-butylcyclohexyl)ureidomethyl]benzoylamino}propionic acid] gave an IC50 [1] of 50 nM.

CC(C)(C)[C@H]1CC[C@H](N(Cc2ccc(C(=O)NCCC(=O)O)cc2)C(=O)Nc2cc(C(F)(F)F)cc(C(F)(F)F)c2)CC1 [Example 237, 3-{4-[3-(3,5-Bis-trifluoromethylphenyl)-1-(trans-4-tert-butylcyclohexyl)ureidomethyl]benzoylamino}propionic acid] showed an IC50 (Glu Bd Assay (III) IC50 (nM)) of 56 nM.
